Laboratory results reported in the supplement of paper PMC10307832.

Tests used:
Assay in all cases: relative viability (nuclei count vs DMSO), 5 days (fraction); higher = more cells survive
UMC-11 = system: UMC-11
Summary of the method: (§1)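 Medians of duplicate plates are given as relative viability. That measure is the nuclei count in treated wells divided by the count in vehicle wells. Counts were taken on 4× images of lung cancer cell lines in 1536-well plates, 5 days after pin-tool dosing the day after seeding with one drug alone or a fixed anchor-drug dose plus five library-drug doses (not always all listed) in √10 steps.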

NCI-H1666 = system: NCI-H1666
Summary of the method: as §1

LXF-289 = system: LXF-289
Summary of the method: as §1

NCI-H1651 = system: NCI-H1651
Summary of the method: as §1

PC-3 [JPC-3] = system: PC-3 [JPC-3]
Summary of the method: as §1

LU99A = system: LU99A
Summary of the method: as §1

HCC-15 = system: HCC-15
Summary of the method: as §1

BEN = system: BEN
Summary of the method: as §1

NCI-H838 = system: NCI-H838
Summary of the method: as §1

SK-MES-1 = system: SK-MES-1
Summary of the method: as §1

LCLC-97TM1 = system: LCLC-97TM1
Summary of the method: as §1

NCI-H650 = system: NCI-H650
Summary of the method: as §1

NCI-H2087 = system: NCI-H2087
Summary of the method: as §1

LC-2-ad = system: LC-2-ad
Summary of the method: as §1

LK-2 = system: LK-2
Summary of the method: as §1

NCI-H661 = system: NCI-H661
Summary of the method: as §1

NCI-H1944 = system: NCI-H1944
Summary of the method: as §1

NCI-H358 = system: NCI-H358
Summary of the method: as §1

ChaGo-K-1 = system: ChaGo-K-1
Summary of the method: as §1

HCC-78 = system: HCC-78
Summary of the method: as §1

NCI-H596 = system: NCI-H596
Summary of the method: as §1

NCI-H322M = system: NCI-H322M
Summary of the method: as §1

Compound: NC(=O)Nc1cc(-c2cccc(F)c2)sc1C(=O)N[C@H]1CCCNC1 [AZD7762] + CS(=O)(=O)N1CCN(Cc2cc3nc(-c4cccc5[nH]ncc45)nc(N4CCOCC4)c3s2)CC1 [Pictilisib] (partner 1 µM)
- relative viability (UMC-11; first compound 0.01 µM): 0.753
- relative viability (UMC-11; first compound 0.03162 µM): 0.768
- relative viability (UMC-11; first compound 0.1 µM): 0.848
- relative viability (UMC-11; first compound 0.3162 µM): 0.679
- relative viability (UMC-11; first compound 1 µM): 0.393
- relative viability (NCI-H1666; first compound 0.01 µM): 0.603
- relative viability (NCI-H1666; first compound 0.03162 µM): 0.407
- relative viability (NCI-H1666; first compound 0.1 µM): 0.55
- relative viability (NCI-H1666; first compound 0.3162 µM): 0.589
- relative viability (NCI-H1666; first compound 1 µM): 0.411
- relative viability (LXF-289; first compound 0.01 µM): 0.754
- relative viability (LXF-289; first compound 0.03162 µM): 0.875
- relative viability (LXF-289; first compound 0.1 µM): 0.809
- relative viability (LXF-289; first compound 0.3162 µM): 0.855
- relative viability (LXF-289; first compound 1 µM): 0.813
- relative viability (NCI-H1651; first compound 0.01 µM): 0.755
- relative viability (NCI-H1651; first compound 0.03162 µM): 0.566
- relative viability (NCI-H1651; first compound 0.1 µM): 0.556
- relative viability (NCI-H1651; first compound 0.3162 µM): 0.457
- relative viability (NCI-H1651; first compound 1 µM): 0.226
- relative viability (PC-3 [JPC-3]; first compound 0.01 µM): 0.774
- relative viability (PC-3 [JPC-3]; first compound 0.03162 µM): 0.793
- relative viability (PC-3 [JPC-3]; first compound 0.1 µM): 0.779
- relative viability (PC-3 [JPC-3]; first compound 0.3162 µM): 0.705
- relative viability (PC-3 [JPC-3]; first compound 1 µM): 0.448
- relative viability (LU99A; first compound 0.01 µM): 0.381
- relative viability (LU99A; first compound 0.03162 µM): 0.331
- relative viability (LU99A; first compound 0.1 µM): 0.324
- relative viability (LU99A; first compound 0.3162 µM): 0.319
- relative viability (LU99A; first compound 1 µM): 0.207
- relative viability (HCC-15; first compound 0.01 µM): 0.713
- relative viability (HCC-15; first compound 0.03162 µM): 0.792
- relative viability (HCC-15; first compound 0.1 µM): 0.875
- relative viability (HCC-15; first compound 0.3162 µM): 0.789
- relative viability (HCC-15; first compound 1 µM): 0.824
- relative viability (BEN; first compound 0.01 µM): 0.713
- relative viability (BEN; first compound 0.03162 µM): 0.689
- relative viability (BEN; first compound 0.1 µM): 0.537
- relative viability (BEN; first compound 0.3162 µM): 0.539
- relative viability (BEN; first compound 1 µM): 0.41
- relative viability (NCI-H838; first compound 0.01 µM): 0.544
- relative viability (NCI-H838; first compound 0.03162 µM): 0.45
- relative viability (NCI-H838; first compound 0.1 µM): 0.471
- relative viability (NCI-H838; first compound 0.3162 µM): 0.53
- relative viability (NCI-H838; first compound 1 µM): 0.25
- relative viability (SK-MES-1; first compound 0.01 µM): 0.353
- relative viability (SK-MES-1; first compound 0.03162 µM): 0.322
- relative viability (SK-MES-1; first compound 0.1 µM): 0.358
- relative viability (SK-MES-1; first compound 0.3162 µM): 0.331
- relative viability (SK-MES-1; first compound 1 µM): 0.25
- relative viability (LCLC-97TM1; first compound 0.01 µM): 0.201
- relative viability (LCLC-97TM1; first compound 0.03162 µM): 0.201
- relative viability (LCLC-97TM1; first compound 0.1 µM): 0.277
- relative viability (LCLC-97TM1; first compound 0.3162 µM): 0.216
- relative viability (LCLC-97TM1; first compound 1 µM): 0.152
- relative viability (NCI-H650; first compound 0.01 µM): 0.906
- relative viability (NCI-H650; first compound 0.03162 µM): 0.854
- relative viability (NCI-H650; first compound 0.1 µM): 0.855
- relative viability (NCI-H650; first compound 0.3162 µM): 1
- relative viability (NCI-H650; first compound 1 µM): 0.839
- relative viability (NCI-H2087; first compound 0.01 µM): 0.982
- relative viability (NCI-H2087; first compound 0.03162 µM): 0.902
- relative viability (NCI-H2087; first compound 0.1 µM): 1.23
- relative viability (NCI-H2087; first compound 0.3162 µM): 1.31
- relative viability (NCI-H2087; first compound 1 µM): 1.09
- relative viability (LC-2-ad; first compound 0.01 µM): 0.438
- relative viability (LC-2-ad; first compound 0.03162 µM): 0.39
- relative viability (LC-2-ad; first compound 0.1 µM): 0.321
- relative viability (LC-2-ad; first compound 0.3162 µM): 0.308
- relative viability (LC-2-ad; first compound 1 µM): 0.196
- relative viability (LK-2; first compound 0.01 µM): 0.628
- relative viability (LK-2; first compound 0.03162 µM): 0.485
- relative viability (LK-2; first compound 0.1 µM): 0.482
- relative viability (LK-2; first compound 0.3162 µM): 0.481
- relative viability (LK-2; first compound 1 µM): 0.34
- relative viability (NCI-H661; first compound 0.01 µM): 0.41
- relative viability (NCI-H661; first compound 0.03162 µM): 0.406
- relative viability (NCI-H661; first compound 0.1 µM): 0.356
- relative viability (NCI-H661; first compound 0.3162 µM): 0.316
- relative viability (NCI-H661; first compound 1 µM): 0.312
- relative viability (NCI-H1944; first compound 0.01 µM): 0.333
- relative viability (NCI-H1944; first compound 0.03162 µM): 0.395
- relative viability (NCI-H1944; first compound 0.1 µM): 0.4
- relative viability (NCI-H1944; first compound 0.3162 µM): 0.363
- relative viability (NCI-H1944; first compound 1 µM): 0.389
- relative viability (NCI-H358; first compound 0.01 µM): 0.363
- relative viability (NCI-H358; first compound 0.03162 µM): 0.358
- relative viability (NCI-H358; first compound 0.1 µM): 0.35
- relative viability (NCI-H358; first compound 0.3162 µM): 0.325
- relative viability (NCI-H358; first compound 1 µM): 0.267
- relative viability (ChaGo-K-1; first compound 0.01 µM): 0.656
- relative viability (ChaGo-K-1; first compound 0.03162 µM): 0.815
- relative viability (ChaGo-K-1; first compound 0.1 µM): 0.846
- relative viability (ChaGo-K-1; first compound 0.3162 µM): 0.675
- relative viability (ChaGo-K-1; first compound 1 µM): 0.562
- relative viability (HCC-78; first compound 0.01 µM): 0.241
- relative viability (HCC-78; first compound 0.03162 µM): 0.228
- relative viability (HCC-78; first compound 0.1 µM): 0.205
- relative viability (HCC-78; first compound 0.3162 µM): 0.213
- relative viability (HCC-78; first compound 1 µM): 0.18
- relative viability (NCI-H596; first compound 0.01 µM): 0.405
- relative viability (NCI-H596; first compound 0.03162 µM): 0.411
- relative viability (NCI-H596; first compound 0.1 µM): 0.487
- relative viability (NCI-H596; first compound 0.3162 µM): 0.454
- relative viability (NCI-H596; first compound 1 µM): 0.389
- relative viability (NCI-H322M; first compound 0.01 µM): 0.484
- relative viability (NCI-H322M; first compound 0.03162 µM): 0.552
- relative viability (NCI-H322M; first compound 0.1 µM): 0.502
- relative viability (NCI-H322M; first compound 0.3162 µM): 0.5
- relative viability (NCI-H322M; first compound 1 µM): 0.426
